Assay results reported in patent US10351522B2, “Sulfonamide derivative and pharmaceutically acceptable acid addition salt thereof” (UNIVERSITY OF TSUKUBA, priority 2015, dated 2019).
Read-outs that look alike come from different tables or passages of the source.

What was measured:
human OX1R = target: T1, human OX1R (Homo sapiens, UniProt O43613); assay: Agonist activity against OX1R: intracellular calcium (Fura-2AM, FDSS7000) in CHOOX1R cells; format: cell-based; conditions: relative to orexin-A as full agonist (100%); for Emax at 0.1 µM / Emax at 1 µM / Emax at 10 µM: read-out: Response (%) OX1R
T1 construct: expressed in transfected cells; host or cells: CHO (Chinese hamster ovary) cells, line CHOOX1R, co-expressing NFAT-luciferase
T1 sequence (O43613 1-425): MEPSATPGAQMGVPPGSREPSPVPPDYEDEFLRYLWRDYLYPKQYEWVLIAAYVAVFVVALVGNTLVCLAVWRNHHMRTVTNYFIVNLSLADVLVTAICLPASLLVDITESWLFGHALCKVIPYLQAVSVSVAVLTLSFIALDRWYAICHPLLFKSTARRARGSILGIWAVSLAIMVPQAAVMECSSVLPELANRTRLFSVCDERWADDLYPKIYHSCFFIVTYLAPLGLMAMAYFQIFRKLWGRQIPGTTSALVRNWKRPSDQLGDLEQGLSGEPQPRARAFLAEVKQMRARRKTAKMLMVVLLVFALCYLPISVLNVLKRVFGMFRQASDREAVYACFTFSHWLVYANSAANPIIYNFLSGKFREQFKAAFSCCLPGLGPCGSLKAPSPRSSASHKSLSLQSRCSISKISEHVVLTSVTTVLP
Procedure: (§1) Evaluation of Agonist Activity Against OX1R and OX2R
(§2) NAFT-luciferase gene and human OX1R gene were constitutively expressed in CHO cell, which is a cell line derived from Chinese hamster ovary to establish a cell line (CHOOX1R) and NAFT-luciferase gene and human OX2R gene were constitutively expressed in CHO cell to establish a cell line (CHOOX2R). The respective cells were seeded in a 96-well Multiplate at 10,000 cells/well and cultured in a 5% FBS (Thermo Scientific)-added DMEM medium (Sigma-Aldrich) for 48 hr. The medium was removed, an assay buffer (20 mM HEPES (Sigma-Aldrich), Hanks' balanced salt solution (Gibco), 0.1% BSA (Sigma-Aldrich), 2.5 mM probenecid acid (Wako Pure Chemical Industries, Ltd.)) (100 μL) containing 5 μM Fura-2AM (Cayman Chemical) was added, and the cells were incubated for 60 min. The buffer containing Fura-2AM was removed, and an assay buffer (75 μL) was added. An assay buffer (25 μL) containing a test compound was added thereto to start the reaction. Changes in the intracellular calcium ion concentration due to the reaction were measured by measuring the fluorescence intensity ratio by dual wavelength excitation at 340 and 380 nm, by using FDSS7000 (Hamamatsu Photonics K.K.). The test compound was dissolved in DMSO to 10 mM, and diluted with the assay buffer to a final concentration of 10^−7M to 10^−5M (final concentration of DMSO 1%).
(§3) (As used herein, Response in Table 21 to Table 27 is a value obtained by dividing the agonist activity value, when the test compound is evaluated with orexin-A as a full-agonist (maximum value of agonist activity: 100%), at 10 μM, 1.0 μM, 0.1 μM by the agonist activity value of orexin-A.)

human OX2R = target: T2, human OX2R (Homo sapiens, UniProt O43614); assay: Agonist activity against OX2R: intracellular calcium (Fura-2AM, FDSS7000) in CHOOX2R cells; format: cell-based; conditions: relative to orexin-A as full agonist (100%)
T2 construct: expressed in transfected cells; host or cells: CHO (Chinese hamster ovary) cells, line CHOOX2R, co-expressing NFAT-luciferase
T2 sequence (O43614 1-444): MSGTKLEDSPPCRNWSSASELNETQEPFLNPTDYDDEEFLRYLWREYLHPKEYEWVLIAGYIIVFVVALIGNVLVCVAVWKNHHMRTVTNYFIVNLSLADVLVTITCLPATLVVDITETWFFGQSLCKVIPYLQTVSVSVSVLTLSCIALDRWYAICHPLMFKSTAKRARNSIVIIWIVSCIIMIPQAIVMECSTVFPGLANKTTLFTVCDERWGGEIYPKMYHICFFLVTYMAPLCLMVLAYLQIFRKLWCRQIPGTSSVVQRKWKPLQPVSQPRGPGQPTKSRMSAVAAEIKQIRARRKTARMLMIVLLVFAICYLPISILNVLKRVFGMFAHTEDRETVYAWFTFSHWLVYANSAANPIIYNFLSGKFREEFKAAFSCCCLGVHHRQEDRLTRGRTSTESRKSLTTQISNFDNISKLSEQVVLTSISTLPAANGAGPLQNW
Procedure: as §1, §2, §3

Response (%) OX1R (human OX1R; test compound 0.1 μM) [%]	Response (%) OX1R (human OX1R; test compound 1.0 μM) [%]	Response (%) OX1R (human OX1R; test compound 10 μM) [%]	Response (%) OX2R (human OX2R; test compound 0.1 μM) [%]	Response (%) OX2R (human OX2R; test compound 1.0 μM) [%]	Response (%) OX2R (human OX2R; test compound 10 μM) [%]	Response (%) OX2R (human OX2R; 0.1 μM test compound) [%]	Response (%) OX2R (human OX2R; 1.0 μM test compound) [%]	Response (%) OX2R (human OX2R; 10 μM test compound) [%]	Response (%) OX1R (human OX1R; 0.1 μM test compound) [%]	Response (%) OX1R (human OX1R; 1.0 μM test compound) [%]	Response (%) OX1R (human OX1R; 10 μM test compound) [%]	Compound	further results
<5	<5	<5	20	89	111	–	–	–	–	–	–	CCN(Cc1ccccc1)C(=O)c1ccc(OC)c(S(=O)(=O)Nc2cccc(NC(=O)Nc3cccc(N(C)C)c3)c2)c1 [Example 101]	–
8	7	8	9	7	46	–	–	–	–	–	–	COc1ccc(C(=O)Nc2cccc(N(C)C)c2)cc1S(=O)(=O)Nc1cccc(NC(=O)Nc2cccc(N(C)C)c2)c1 [Example 106]	–
<5	<5	<5	7	7	10	–	–	–	–	–	–	COc1ccc(-c2cccc(C(=O)N(C)C)c2)cc1S(=O)(=O)Nc1ccc(NC(=O)Nc2cccc(N(C)C)c2)cc1 [Example 122]	–
–	–	–	–	–	–	<5	<5	23	–	–	–	COc1ccc(-c2cccc(C(=O)N(C)C)c2)cc1S(=O)(=O)Nc1cccc(Nc2c(Nc3cccc(C)c3)c(=O)c2=O)c1 [Example 80, 3′-(N-(3-((3,4-dioxo-2-(m-tolylamino)cyclobut-1-en-1-yl)amino)phenyl)sulfamoyl)-4′-methoxy-N,N-dimethyl-[1,1′-biphenyl]-3-carboxamide]	Emax at 0.1 µM (human OX1R; 0.1 μM test compound): < 5%; Emax at 1 µM (human OX1R; 1.0 μM test compound): < 5%; Emax at 10 µM (human OX1R; 10 μM test compound): < 5%
–	–	–	–	–	–	93	85	88	<5	36	67	COc1ccc(-c2cccc(C(=O)N(C)C)c2)cc1S(=O)(=O)Nc1cccc(NC(=O)Nc2ccccc2C)c1 [Example 51]	–
8	7	8	9	78	147	–	–	–	–	–	–	COc1ccc(-c2cccc(C(=O)N(C)C)c2)cc1S(=O)(=O)Nc1cccc(NC(=O)Nc2cccc(N(C)C)c2)n1 [Example 124]	–
<5	<5	<5	<5	6	73	–	–	–	–	–	–	CCN(Cc1cccnc1)C(=O)c1ccc(OC)c(S(=O)(=O)Nc2cccc(NC(=O)Nc3ccccc3N(C)C)c2)c1 [Example 113]	–
<5	<5	<5	<5	8	62	–	–	–	–	–	–	CN(C)C(=O)c1cccc(-c2ccc(O)c(S(=O)(=O)Nc3cccc(NC(=O)Nc4cccc(N(C)C)c4)c3)c2)c1 [Example 115]	–
–	–	–	35	95	95	–	–	–	–	–	–	COc1ccc(-c2cccc(C(=O)N(C)C)c2)cc1S(=O)(=O)Nc1cccc(NCC(=O)NCc2cccc(C)c2)c1 [Example 92, 4′-methoxy-N,N-dimethyl-3′-(N-(3-((2-((3-methylbenzyl)amino)-2-oxoethyl)amino)phenyl)sulfamoyl)-[1,1′-biphenyl]-3-carboxamide]	Emax at 0.1 µM (human OX1R; test compound 0.1 μM): < 5%; Emax at 1 µM (human OX1R; test compound 1.0 μM): 6%; Emax at 10 µM (human OX1R; test compound 10 μM): 30%
<5	<5	10	7	47	104	–	–	–	–	–	–	COc1ccc(-c2cccc(C(=O)N(C)C)c2)cc1S(=O)(=O)Nc1ccccc1NC(=O)Nc1cccc(N(C)C)c1 [Example 121]	–
<5	<5	<5	7	8	31	–	–	–	–	–	–	COc1ccc(-c2cccc(C(=O)N(C)C)c2)cc1S(=O)(=O)Nc1cccc(NS(C)(=O)=O)c1 [Example 89]	–
–	–	–	–	–	–	<5	<5	51	–	–	–	COc1ccc(-c2cccc(C(=O)N(C)C)c2)cc1S(=O)(=O)Nc1cccc(Nc2c(OC)c(=O)c2=O)c1 [Example 79, 4′-methoxy-3′-(N-(3-((2-methoxy-3,4-dioxocyclobut-1-en-1-yl)amino)phenyl)sulfamoyl)-N,N-dimethyl-[1,1′-biphenyl]-3-carboxamide]	Emax at 0.1 µM (human OX1R; 0.1 μM test compound): < 5%; Emax at 1 µM (human OX1R; 1.0 μM test compound): < 5%; Emax at 10 µM (human OX1R; 10 μM test compound): < 5%
–	–	–	–	–	–	<5	10	72	<5	<5	<5	COc1ccccc1Nc1cccc(NS(=O)(=O)c2cc(-c3cccc(C(=O)N(C)C)c3)ccc2OC)c1 [Example 31]	–
–	–	–	25	84	108	–	–	–	–	–	–	COc1ccc(-c2cccc(C(=O)N(C)C)c2)cc1S(=O)(=O)Nc1cccc(/N=N/c2ccc(N(C)C)cc2CO)c1 [Example 97, (E)-3′-(N-(3-((4-(dimethylamino)-2-(hydroxymethyl)phenyl)diazenyl)phenyl)sulfamoyl)-4′-methoxy-N,N-dimethyl-[1,1-biphenyl]-3-carboxamide]	Emax at 0.1 µM (human OX1R; test compound 0.1 μM): < 5%; Emax at 1 µM (human OX1R; test compound 1.0 μM): < 5%; Emax at 10 µM (human OX1R; test compound 10 μM): 11%
–	–	–	–	–	–	57	61	48	<5	47	82	COc1ccc(CNc2cccc(NS(=O)(=O)c3cc(-c4cccc(C(=O)N(C)C)c4)ccc3OC)c2)cc1 [Example 22]	–
–	–	–	–	–	–	26	89	92	<5	<5	<5	COc1ccc(-c2cccc(C(=O)N(C)C)c2)cc1S(=O)(=O)Nc1cccc(NC(=O)Nc2cccc(C(=O)N(C)C)c2)c1 [Example 49]	–
–	–	–	–	–	–	8	10	24	6	8	27	COc1ccc(-c2cccc(C(=O)N(C)C)c2)cc1S(=O)(=O)Nc1cccc(NC(=O)c2cccc(N(C)C)c2)c1 [Example 7]	–
–	–	–	–	–	–	7	59	79	<5	<5	<5	COc1ccc(-c2cccc(C(=O)N(C)C)c2)cc1S(=O)(=O)Nc1cccc(NC(=O)Nc2ccc(NC(=O)OC(C)(C)C)cc2)c1 [Example 72]	–
